Literature values in patent publication US20230043979A1, “PHOSPHODIESTERASE-4 INHIBITOR COMBINATIONS, METHODS OF MAKING, AND METHODS OF USE THEREOF” (VK RESEARCH ASSOCIATES INC., priority 2021, published 2023).

Settings: for Median plasma/elimination Half-life (T1/2): Table 1, PDE4 inhibitors, in h; for half-life / median time to maximum concentration: oral administration

| Median plasma/elimination Half-life (T1/2) | half-life | median time to maximum concentration | Compound |
| --- | --- | --- | --- |
| 19 | – | – | CC(C)C(=O)c1c(C(C)C)nn2ccccc12 [Ibudilast] |
| 17 - 30 | 17 to 30 h | 1 to 2 h | O=C(Nc1c(Cl)cncc1Cl)c1ccc(OC(F)F)c(OCC2CC2)c1 [Roflumilast] |
| 3 | about 3 hours | about 30 minutes | COc1ccc(C2CNC(=O)C2)cc1OC1CCCC1 (stereo not shown) [Rolipram] |

The remaining lines, values behind:

| Compound | Median plasma/elimination Half-life (T1/2) | half-life | median time to maximum concentration |
| --- | --- | --- | --- |
| CCOc1cc([C@@H](CS(C)(=O)=O)N2C(=O)c3cccc(NC(C)=O)c3C2=O)ccc1OC [Apremilast] | 6 to 9 | – | – |
| COc1ccc([C@]2(C#N)CC[C@@H](C(=O)O)CC2)cc1OC1CCCC1 [Cilomilast] | 7 | – | – |
| N#Cc1ccc(Oc2ccc3c(c2)COB3O)cc1 [Crisaborole] | 11.9 ± 8.3 | – | – |
